Values quoted from earlier work, collected in patent publication US11339174B2, “γ-spiroketal-γ-lactones and pharmaceutical composition containing same and process for preparation thereof” (Council of Scientific and Industrial Research, priority 2017, dated 2022).
Values after ≈ are worked out from the molar mass of the structure shown.

Key:
HL-60 = conditions: anticancer

Compound	IC50 against HL-60 (HL-60) [µg/mL]	activity against Bacillus subtilis (Bacillus subtilis)	activity against Staphylococcus aureus (Staphylococcus aureus)
C[C@H]1O[C@@H]2C[C@]3(C=CC(=O)O3)O[C@@H]2[C@H]1O [pyrenolide D]	4 (≈ 18.9 µM)	–	–
massarinoline A	–	active	active
